# Test results published in patent US11414384B2, “P300/CBP hat inhibitors” (Constellation Pharmaceuticals, Inc., priority 2018, dated 2022).
# Target: p300 HAT domain (residues 1287-1666) (Homo sapiens (Human), UniProt Q09472)
# Test: p300 HAT SPA assay (scintillation proximity assay, acetylation of biotinylated H3(1-21) peptide)
# Type: biochemical
# Conditions: P300 HAT SPA IC50, p300 HAT domain; average of at least 2 replicate titrations
# In short: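 Purified p300 HAT domain reaction transferred to streptavidin plates to capture biotinylated H3(1-21) peptide, incubated 1.5 hr at RT, and read by scintillation proximity. IC50 values derived from concentration-response data.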
# Chain of p300 HAT domain (residues 1287-1666) (Q09472 1287-1666): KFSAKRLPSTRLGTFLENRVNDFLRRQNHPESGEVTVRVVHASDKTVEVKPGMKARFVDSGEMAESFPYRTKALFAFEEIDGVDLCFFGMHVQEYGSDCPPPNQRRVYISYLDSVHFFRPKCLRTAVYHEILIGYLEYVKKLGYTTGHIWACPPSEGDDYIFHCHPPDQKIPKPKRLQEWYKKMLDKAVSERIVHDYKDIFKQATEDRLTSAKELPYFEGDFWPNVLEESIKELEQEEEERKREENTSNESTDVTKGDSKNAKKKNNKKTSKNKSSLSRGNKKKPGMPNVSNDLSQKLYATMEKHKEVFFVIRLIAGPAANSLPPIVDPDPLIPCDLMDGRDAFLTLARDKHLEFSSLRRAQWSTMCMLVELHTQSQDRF
row,Compound,IC50
1,"O=C(c1cn(CCO)c2ccccc12)C(NCCc1ccc(Cl)cc1)c1ccccc1 (single isomer, unassigned) [128 Isomer 2]",13.4 µM
2,"COCCn1cc(C(=O)C(NCCc2ccc(Cl)cc2)c2ccccc2)c2ccccc21 (single isomer, unassigned) [127 Isomer 1]",> 60 µM
3,"O=C(c1cn(CCO)c2ccccc12)C(NCCc1ccc(Cl)cc1)c1ccccc1 (single isomer, unassigned) [128 Isomer 1]",42.1 µM

# Same assay, conditions: p300 HAT domain; average of at least 2 replicate titrations; read-out: P300 HAT SPA IC50
row,IC50,Compound
1,> 5 µM,"CNC(=O)c1ccc2c(C(=O)C(NCCc3ccc(C#N)cc3)c3ccccc3)c[nH]c2n1 (single isomer, unassigned) [67 Isomer 2]"
2,> 5 µM,"Cn1cc(-c2ccc3c(C(=O)C(NCCc4ccc(Cl)cc4)c4ccccc4)c[nH]c3c2)nn1 (single isomer, unassigned) [104 Isomer 1]"
3,0.0538 µM,"N#Cc1ccc(CCNC(C(=O)c2c[nH]c3cc(C(=O)NCCN4CCCC4)ccc23)c2ccccc2)cc1 (single isomer, unassigned) [176 Isomer 1]"
4,1.31 µM,"Cn1cc(-c2ccc3c(C(=O)C(NCCc4ccc(Cl)cc4)c4ccccc4)c[nH]c3c2)cn1 (single isomer, unassigned) [83 Isomer 1]"
5,> 60 µM,"O=C(c1c[nH]c2ccccc12)C(NCCc1ccc(Cl)cc1)C1CCCC1 (single isomer, unassigned) [25 Isomer 2]"
6,0.135 µM,"N#Cc1ccc(CCNC(C(=O)c2c[nH]c3cc(C(=O)NC4CN(CC(F)(F)F)C4)ccc23)c2ccccc2)cc1 (single isomer, unassigned) [162 Isomer 2]"
7,1.11 µM,"N#Cc1ccc(CCNC(C(=O)c2c[nH]c3cc(C(=O)NCCN4CCCC4)ccc23)c2ccccc2)cc1 (single isomer, unassigned) [176 Isomer 2]"
8,> 60 µM,"O=C(c1c[nH]c2ccccc12)C(NCCn1cnc2ccccc21)c1ccccc1 (single isomer, unassigned) [37 Isomer 1]"
9,0.16 µM,"O=C(c1c[nH]c2cc(N3CCCC3=O)ccc12)C(NCCc1ccc(Cl)cc1)c1ccccc1 (single isomer, unassigned) [74 Isomer 2]"
10,2.1 µM,"CC(Cc1ccc(Cl)cc1)NC(C(=O)c1c[nH]c2cc(-c3cnn(C)c3)ccc12)c1ccccc1 (single isomer, unassigned) [92 Isomer 1]"
11,> 5 µM,"Cn1cc(-c2ccc3c(C(=O)[C@@H](NCCc4ccc(N)nc4)c4ccccc4)c[nH]c3c2)cn1 (single isomer, unassigned) [187 Isomer 1]"
12,> 60 µM,"Cc1ccc2c(C(=O)C(NCCc3ccc(S(N)(=O)=O)cc3)c3ccccc3)c[nH]c2c1 (single isomer, unassigned) [56 Isomer 1]"
13,> 30 µM,"CN(C)C(=O)CCc1ccc2c(C(=O)C(NCCc3ccc(F)cc3)c3ccccc3)c[nH]c2c1 (single isomer, unassigned) [49 Isomer 1]"
14,> 30 µM,"COc1ccc2c(C(=O)C(NCCc3ccc(S(N)(=O)=O)cc3)c3ccccc3)c[nH]c2c1 (single isomer, unassigned) [51 Isomer 1]"
15,28.1 µM,"CCn1cc(-c2ccc3c(C(=O)C(NCCc4ccc(Cl)cc4)c4ccccc4)c[nH]c3c2)cn1 (single isomer, unassigned) [86 Isomer 1]"
16,49.2 µM,"Cc1[nH]c2ccccc2c1C(=O)C(NCCc1ccc(S(N)(=O)=O)cc1)c1ccccc1 (single isomer, unassigned) [16 Isomer 1]"
17,0.793 µM,"Cn1cc(-c2ccc3c(C(=O)[C@@H](NCCc4ccc(N)nc4)c4ccccc4)c[nH]c3c2)cn1 (single isomer, unassigned) [187 Isomer 2]"
18,> 60 µM,"CN(C)C(=O)Cc1ccc(CCNC(C(=O)c2c[nH]c3ccccc23)c2ccccc2)cc1 (single isomer, unassigned) [137 Isomer 2]"
19,> 30 µM,"CCC(CNC(C(=O)c1c[nH]c2ccccc12)c1ccccc1)c1ccc(Cl)cc1 (single isomer, unassigned) [59 Isomer 1]"
20,> 60 µM,"O=C(c1c[nH]c2ccccc12)C(NCCc1ccc(OC(F)(F)F)cc1)c1ccccc1 (single isomer, unassigned) [40 Isomer 1]"
21,2.01 µM,"Cc1ncc(-c2ccc3c(C(=O)C(NCCc4ccc(Cl)cc4)c4ccccc4)c[nH]c3c2)[nH]1 (single isomer, unassigned) [110 Isomer 1]"
22,0.718 µM,"CCNC(=O)c1ccc2c(C(=O)C(NCC(C)c3ccc(C#N)cc3)c3ccccc3)c[nH]c2c1 (single isomer, unassigned) [75 Isomer 1]"
23,> 5 µM,"Cn1cnc(-c2ccc3c(C(=O)[C@@H](NCCc4ccc(C(N)=O)cc4)c4ccccc4)c[nH]c3c2)c1 (single isomer, unassigned) [177 Isomer 1]"
24,0.325 µM,"CN1CCN(c2ccc3c(C(=O)C(NCCc4ccc(C#N)cc4)c4ccccc4)c[nH]c3c2)CC1 (single isomer, unassigned) [122 Isomer 1]"
25,0.0218 µM,"CC(CNC(C(=O)c1cnn2cc(C(=O)NC[C@@H](C)O)ccc12)c1ccccc1)c1ccc(C#N)cc1 (single isomer, unassigned) [70 Isomer 4]"

row,IC50,Compound
1,0.717 µM,"COCCn1cc(-c2ccc3c(C(=O)C(NCCc4ccc(C(N)=O)cc4)c4ccccc4)c[nH]c3c2)cn1 (single isomer, unassigned) [183 Isomer 2]"
2,7.61 µM,"CN1CCN(c2ccc3c(C(=O)C(NCCc4ccc(F)cc4)c4ccccc4)c[nH]c3c2)CC1 (single isomer, unassigned) [123 Isomer 1]"
3,2.83 µM,"O=C(c1c[nH]c2ccccc12)C(NCCc1ccc(Cl)nc1)c1ccccc1 (single isomer, unassigned) [52 Isomer 2]"
4,2.22 µM,"CC(Cc1ccc(Cl)cc1)NC(C(=O)c1c[nH]c2cc(-c3cnn(C)c3)ccc12)c1ccccc1 (single isomer, unassigned) [92 Isomer 4]"
5,> 5 µM,"NC(=O)c1ccc(CCNC(C(=O)c2c[nH]c3cc(-c4cnn(CCO)c4)ccc23)c2ccccc2)cc1 (single isomer, unassigned) [182 Isomer 1]"
6,> 30 µM,"NS(=O)(=O)c1ccc(CCNC(C(=O)c2c[nH]c3c(C(F)(F)F)cccc23)c2ccccc2)cc1 (single isomer, unassigned) [50 Isomer 2]"
7,> 60 µM,"CNC(=O)c1ccc(CCNC(C(=O)c2c[nH]c3ccccc23)c2ccccc2)cc1 (single isomer, unassigned) [134 Isomer 1]"
8,> 60 µM,"Cc1ccc2c(C(=O)C(NCCc3ccc(F)cc3)c3ccccc3)c[nH]c2c1 (single isomer, unassigned) [48 Isomer 1]"
9,8.76 µM,"O=C(c1c[nH]c2ccccc12)C(NCCc1ccc(Cl)cc1)c1ccccc1 (single isomer, unassigned) [5 Isomer 1]"
10,4.3 µM,"Cn1cc(-c2ccc3c(C(=O)C(NCCc4ccc(C(=O)O)cc4)c4ccccc4)c[nH]c3c2)cn1 (single isomer, unassigned) [138 Isomer 2]"
11,25.2 µM,"O=C(O)CCc1ccc2c(C(=O)C(NCCc3ccc(F)cc3)c3ccccc3)c[nH]c2c1 (single isomer, unassigned) [159 Isomer 1]"
12,11.6 µM,"CN(C)CCNC(=O)c1cccc2c(C(=O)C(NCCc3ccc(Cl)cc3Cl)c3ccccc3)c[nH]c12 (single isomer, unassigned) [149 Isomer 2]"
13,> 60 µM,"CN(C)c1ccc(CCNC(C(=O)c2c[nH]c3ccccc23)c2ccccc2)cc1 (single isomer, unassigned) [39 Isomer 1]"
14,6.93 µM,"NS(=O)(=O)c1ccc(CCNC(C(=O)c2c[nH]c3c(C(F)(F)F)cccc23)c2ccccc2)cc1 (single isomer, unassigned) [50 Isomer 1]"
15,> 30 µM,"COCCNC(=O)c1cccc2c(C(=O)C(NCCc3ccc(Cl)cc3Cl)c3ccccc3)c[nH]c12 (single isomer, unassigned) [150 Isomer 2]"
16,0.657 µM,"CN(C)C(=O)c1ccc2c(C(=O)C(NCCc3ccc(C#N)cc3)c3ccccc3)c[nH]c2c1 (single isomer, unassigned) [172 Isomer 2]"
17,> 60 µM,"O=C(c1c[nH]c2ccccc12)C(NCCN1CCOCC1)c1ccccc1 (single isomer, unassigned) [18 Isomer 2]"
18,2.84 µM,"CN1CCC(Oc2ccc3c(C(=O)C(NCCc4ccc(C#N)cc4)c4ccccc4)c[nH]c3c2)CC1 (single isomer, unassigned) [126 Isomer 1]"
19,> 30 µM,"O=C(c1c[nH]c2cc(-n3ccnc3)ccc12)C(NCCc1ccc(F)cc1)c1ccccc1 (single isomer, unassigned) [117 Isomer 2]"
20,0.932 µM,"N#Cc1ccc(CCNC(C(=O)c2c[nH]c3cc(C(=O)N4CCCC4)ccc23)c2ccccc2)cc1 (single isomer, unassigned) [171 Isomer 2]"
21,> 60 µM,"O=C(c1c[nH]c2ccccc12)C(NCCc1ccc(F)cc1)c1ccccc1 (single isomer, unassigned) [22 Isomer 1]"
22,0.522 µM,"Cc1nc(C(=O)C(NCCc2ccc(C(N)=O)cc2)c2ccccc2)c2ccc(-c3cnn(C)c3)cn12 (single isomer, unassigned) [184 Isomer 2]"
23,12.9 µM,"Cn1cc(-c2ccc3c(C(=O)C(NCCc4ccc(F)cc4)c4ccccc4)c[nH]c3c2)cn1 (single isomer, unassigned) [78 Isomer 1]"
24,7.58 µM,"COc1ccc(CCNC(C(=O)c2c[nH]c3c(Cl)cccc23)c2ccccc2)cc1 (single isomer, unassigned) [28 Isomer 1]"
25,0.212 µM,"N#Cc1ccc(CCNC(C(=O)c2cnn3cc(-c4cn[nH]c4)ccc23)c2ccccc2)cc1 (single isomer, unassigned) [99 Isomer 1]"

row,Compound,IC50
1,"CC(NCCc1ccc(Cl)cc1)C(=O)c1c[nH]c2ccccc12 (single isomer, unassigned) [23 Isomer 1]",> 60 µM
2,"CC(Cc1ccc(Cl)cc1)NC(C(=O)c1c[nH]c2ccccc12)c1ccccc1 (single isomer, unassigned) [27 Isomer 2]",> 60 µM
3,"CC(Cc1ccc(C(N)=O)cc1)NC(C(=O)c1c[nH]c2ccccc12)c1ccccc1 (single isomer, unassigned) [140 Isomer 2]",1.54 µM
4,"CC(Cc1ccc(C(N)=O)cc1)NC(C(=O)c1c[nH]c2ccccc12)c1ccccc1 (single isomer, unassigned) [140 Isomer 1]",> 5 µM
